# What was measured:
# diamondback moth = assay: Lepidopteran efficacy: neonate diamondback moth via radish leaf dip; type: in vivo; conditions: Plutella xylostella, foliar, 48 h, broflanilide @ 0.01 ppm, 2 DAT, read-out: Mean % Mortality @ Days after Treatment 2 DAT
# From the text: (§1) Synergism can be described as an interaction where the combined effect of two or more compounds is greater than the sum of the individual effects of each of the compounds.
# (§2) When the observed combined control effect is greater than the expected combined control effect (E), then the combined effect is synergistic.
# (§3) Large leaf lima bean (southern armyworm) and radish (diamondback moth) were dipped in treatment solution and allowed to dry. The leaves were excised and placed individually into square petri dishes containing two filter paper discs moistened with 0.5 ml of reverse osmosis water. One neonate insect per dish (total of 20 dishes per treatment, grouped into 5 dishes per replicate) were infested for the test with southern armyworm. Five insects per dish (total of 5 dishes per treatment) were infested for the test with diamondback moth. The studies were held in an environmental chamber 14 L: 10 D at 30° C. and 70% RH. The number of dead and moribund insects were recorded (moribund was considered dead). Rate rundowns were conducted initially to determine sublethal rates for the combination testing.
# (§4) 5 replications with 5 insects are each conducted per treatment, insects are held singly.
# (§5) Control mortality is less than 15% and standard treatments yielded 100% mortality.
# southern armyworm = assay: Lepidopteran efficacy: neonate southern armyworm via lima bean leaf dip; type: in vivo; conditions: Spodoptera eridania, foliar, 96 h, broflanilide @ 0.0025 ppm, 4 DAT, read-out: Mean % Mortality @ Days after Treatment 4 DAT
# From the text: as §1, §2, §3, §4, §5
structure (smiles),measurement,setting,value
CN(C(=O)c1ccccc1)c1cccc(C(=O)Nc2c(Br)cc(C(F)(C(F)(F)F)C(F)(F)F)cc2C(F)(F)F)c1F [broflanilide],mortality at 0.01 ppm,diamondback moth,44%
same,mortality at 0.0025 ppm,southern armyworm,23.5%
